Changes are numbered by the printed parent chain. “And” between values parts separate entries of the source, which are not always exact repeats. Equal values may be shown once.
How the values were obtained:
wildtype cTIM = wildtype cTIM (Gallus gallus, UniProt P00940); assay: TIM-catalyzed isomerization of GAP; format: biochemical, chicken; conditions: deprotonation of EH·I^3–; estimated from (Ki)E·KEHI and (Ki)E
[1] = target: L7R cTIM (loop 7 replacement) (Gallus gallus, UniProt P00940, G210A/S211G/Y208T); assay: TIM-catalyzed isomerization of GAP; format: biochemical, chicken
wildtype TbbTIM [2] = target: T1, wildtype TbbTIM (Trypanosoma brucei brucei, UniProt P04789); format: biochemical; conditions: deprotonation of EH·I^3–; estimated from (Ki)E·KEHI and (Ki)E
P166A TbbTIM = P166A TbbTIM (Trypanosoma brucei brucei, UniProt P04789, P168A); assay: TIM-catalyzed isomerization of GAP; format: biochemical; conditions: difference to wildtype enzyme
I170A TbbTIM [3] = target: T2, I170A TbbTIM (Trypanosoma brucei brucei, UniProt P04789, I172A); assay: TIM-catalyzed isomerization of GAP; format: biochemical
Y208F yTIM = target: T3, Y208F yTIM (Saccharomyces cerevisiae, UniProt P00942, Y208F); assay: TIM-catalyzed isomerization of GAP; format: biochemical, yeast
T3 sequence (P00942 1-248 Y208F): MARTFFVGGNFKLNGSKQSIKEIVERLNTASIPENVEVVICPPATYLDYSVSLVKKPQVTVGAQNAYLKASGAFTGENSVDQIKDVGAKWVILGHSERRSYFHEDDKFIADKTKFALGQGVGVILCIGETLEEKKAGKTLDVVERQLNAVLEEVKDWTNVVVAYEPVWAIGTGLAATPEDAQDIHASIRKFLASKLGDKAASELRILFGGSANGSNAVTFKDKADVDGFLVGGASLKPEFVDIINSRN

S211A yTIM = target: T4, S211A yTIM (Saccharomyces cerevisiae, UniProt P00942, S211A); assay: TIM-catalyzed isomerization of GAP; format: biochemical, yeast
T4 sequence (P00942 1-248 S211A): T3 sequence (P00942 1-248 Y208F) with F208Y, S211A

wildtype TIM [4] = assay: Binding of PGA trianion to wildtype TIMs, summary of Table 1; format: biochemical
mutant TIMs = assay: Binding of PGA trianion to mutant TIMs, summary of Table 1; format: biochemical; conditions: read-out: (Ki)E; range over mutant TIMs
[5] = Storage stability of PGA stock solutions; format: physicochemical; conditions: solutions at pH 7.5 stored at −20 °C
wildtype TbbTIM [6] = target: T1, wildtype TbbTIM; conditions: pH profile linear through pH 9.7; ref [14]; cited from earlier work
I170A TbbTIM [7] = target: T2, I170A TbbTIM; conditions: deprotonation of EH·I^3–; ref [14]; cited from earlier work
[8] = ref [20]; cited from earlier work
[9] = Acidity constants of ligands in water
wildtype TIM [10] = conditions: compared with D-GAP; ref [30]; cited from earlier work
[11] = deprotonation of EH·I^3–, fit to eq 7
[12] = (Ki)E, release of PGA trianion from E^–·I^3–, fit to eq 7

L7R cTIM (loop 7 replacement), sequence (P00940 whole entry Y208T/G210A/S211G): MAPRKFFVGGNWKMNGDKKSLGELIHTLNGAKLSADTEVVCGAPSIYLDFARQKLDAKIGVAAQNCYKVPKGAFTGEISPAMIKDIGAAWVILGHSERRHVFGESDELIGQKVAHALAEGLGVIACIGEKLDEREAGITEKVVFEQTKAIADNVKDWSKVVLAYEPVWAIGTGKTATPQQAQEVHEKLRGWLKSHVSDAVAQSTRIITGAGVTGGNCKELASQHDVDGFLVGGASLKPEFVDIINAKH
wildtype cTIM, sequence (P00940 whole entry): as the sequence (P00940 whole entry Y208T/G210A/S211G) above, with T208Y, A210G, G211S counted along it

**Q.** Which KEHI (wildtype cTIM) does the source give for O=C(O)COP(=O)(O)O [PGA, 2-Phosphoglycolic acid] here?
**A.** The KEHI was 2.9 × 10^–11 M.

**Q.** And the Ki [1]?
**A.** The Ki was 2.6 mM.

**Q.** What about the KEHI [1, 11] of the same molecule?
**A.** The KEHI was 1.8 × 10^–7 M.

**Q.** What about the “Δ(pK)EHI” value ([1]; difference to wildtype enzyme) of the same molecule?
**A.** Its value is 3.8.

**Q.** And the KEHI (wildtype TbbTIM [2])?
**A.** The KEHI was 1.2 × 10^–11 M.

**Q.** What about the “Δ(pK)EHI” value (P166A TbbTIM) of the same molecule?
**A.** The value was 0.7.

**Q.** What about the Ki (I170A TbbTIM [3]) of the same molecule?
**A.** Its Ki is 7.94 mM.

**Q.** What about the “Δ(pK)EHI” value (I170A TbbTIM [3]; difference to wildtype enzyme) of the same molecule?
**A.** Its value is 2.3.

**Q.** What about the Ki (Y208F yTIM; [12]) of the same molecule?
**A.** The Ki was 16 mM.

**Q.** And the KEHI (Y208F yTIM; [11])?
**A.** Its KEHI is 4.9 × 10^–7 M.

**Q.** What about the “Δ(pK)EHI” value (Y208F yTIM; difference to wildtype enzyme) of the same molecule?
**A.** Its value is 4.1.

**Q.** And the Ki (Y208F yTIM; log (Ki)E)?
**A.** Its Ki is 15.8 mM.

**Q.** What about the Ki (S211A yTIM; [12]) of the same molecule?
**A.** The Ki was 20 mM and 24 mM.

**Q.** What about the “Δ(pK)EHI” value (S211A yTIM; difference to wildtype enzyme) of the same molecule?
**A.** Its value is 2.2.

**Q.** What about the “binding energy for formation of E^–·I^3–” value (wildtype TIM [4]; from (Ki)E) of the same molecule?
**A.** The value was 13 kJ/mol.

**Q.** And the “binding energy of I^3– to EH” value (wildtype TIM [4]; from (Ki)EH)?
**A.** The value was 46.4 to 49.4 kJ/mol.

**Q.** What about the Ki (mutant TIMs) of the same molecule?
**A.** The Ki was 3 to 30 mM.

**Q.** What about the “stability toward hydrolysis of the phosphoryl group” value [5] of the same molecule?
**A.** Its value is “at least 6 months”.

**Q.** And the “pKEHI for release of a proton from the EH·I^3– complex” value (wildtype TbbTIM [6])?
**A.** Its value is > 10.

**Q.** And the KEHI (I170A TbbTIM [7])?
**A.** Its KEHI is 1.9 × 10^–8 M.

**Q.** What about the “pKa for loss of a proton from PGA dianion to form PGA trianion” value [8] of the same molecule?
**A.** Its value is 6.3.

**Q.** With O=C[C@H](O)COP(=O)(O)O [GAP, D-Glyceraldehyde 3-phosphate] as the molecule, how does the pKa [9] read?
**A.** The pKa was 6 ± 0.1.

**Q.** For O=C[C@@H](O)COP(=O)(O)O [L-GAP], which “binding to TIM” value (wildtype TIM [10]) is on record?
**A.** Its value is “binds much more weakly to TIM than D-GAP”.

— article PMC6037162 (Journal of the American Chemical Society, 2018)
